A word on the IC50: it is the concentration needed to halve the response being measured. The low end stands for inhibition by little substance, the high end for a need for much substance.

For 33 molecules, IC50 results are on record in patent publication US11718622B2, “Heterocyclic adenosine receptor antagonists” (Exelixis, Inc., priority 2020, dated 2023).

Test [1] has as its target Adenosine A2B (ADORA2B) receptor (Homo sapiens (Human), UniProt P29275). In words: ADORA2B Receptor Binding Assay. The note with it: radioligand binding, membrane stock. The method, boiled down:
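Radioligand competition binding on human A2B receptor membranes, 1 h at room temperature, then filtration through BSA-presoaked GF/C filters and ³H counting by scintillation. Inhibition expressed as % of high control after background subtraction.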

For test [2], the target named is Adenosine A2a (ADORA2A) receptor (Homo sapiens (Human), UniProt P29274). In words: ADORA2A Receptor Binding Assay. The following applies: radioligand binding, membrane stock. A digest of the protocol:
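Test compounds incubated with A2a receptor membranes and a ³H-labelled radioligand for 2 hours at room temperature, then filtered through PEI-presoaked GF/C plates and washed. Filter-bound ³H counted by scintillation; % inhibition calculated from background-subtracted signal relative to high control.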

Adenosine A2B (ADORA2B) receptor, sequence (P29275 whole entry): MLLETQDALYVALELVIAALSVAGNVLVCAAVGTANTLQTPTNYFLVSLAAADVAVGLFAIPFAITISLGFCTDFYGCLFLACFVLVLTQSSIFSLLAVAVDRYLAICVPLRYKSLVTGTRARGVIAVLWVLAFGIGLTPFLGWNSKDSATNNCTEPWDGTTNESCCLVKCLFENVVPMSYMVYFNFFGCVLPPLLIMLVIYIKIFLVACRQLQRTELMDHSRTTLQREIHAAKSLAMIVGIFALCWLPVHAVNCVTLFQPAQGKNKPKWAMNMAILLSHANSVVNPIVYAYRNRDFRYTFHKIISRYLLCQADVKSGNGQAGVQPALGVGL
Adenosine A2a (ADORA2A) receptor, sequence (P29274 whole entry): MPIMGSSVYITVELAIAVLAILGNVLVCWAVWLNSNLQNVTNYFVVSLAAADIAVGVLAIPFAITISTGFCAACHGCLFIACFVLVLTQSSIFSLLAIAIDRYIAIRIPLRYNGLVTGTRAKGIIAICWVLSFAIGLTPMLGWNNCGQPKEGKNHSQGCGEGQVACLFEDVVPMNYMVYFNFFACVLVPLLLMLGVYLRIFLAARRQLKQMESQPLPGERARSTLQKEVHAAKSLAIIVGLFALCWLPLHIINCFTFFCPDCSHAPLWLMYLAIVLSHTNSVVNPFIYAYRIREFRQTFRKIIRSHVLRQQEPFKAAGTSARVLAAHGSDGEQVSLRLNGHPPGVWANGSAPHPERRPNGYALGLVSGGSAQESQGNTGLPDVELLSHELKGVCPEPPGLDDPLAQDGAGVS

On to `CC(=O)Nc1cc2nc(C)nn2c(-c2ccc(C)o2)n1` [Compound 25, N-[2-methyl-5-(5-methylfuran-2-yl)-[1,2,4]triazolo[1,5-c]pyrimidin-7-yl]acetamide], for which the half-inhibitory concentration (IC50) in test [1] and in test [2] was less than 10 nM throughout.

In the case of `Cc1nc2cc(NC(=O)C3CCC3)nc(-c3ccc(C)o3)n2n1` [Compound 10, N-[2-methyl-5-(5-methylfuran-2-yl)-[1,2,4]triazolo[1,5-c]pyrimidin-7-yl]cyclobutanecarboxamide], the IC50 is 10 to 100 nM in test [1] and less than 10 nM in test [2].

As for `Cc1nc2c(-c3ccc(C)o3)nc(N)cn2n1` [Compound 168, 2-methyl-8-(5-methylfuran-2-yl)-[1,2,4]triazolo[1,5-a]pyrazin-6-amine], the half-maximal inhibitory concentration (IC50) was 10 to 100 nM in test [1] and less than 10 nM in test [2].

In the case of `Cc1nc2cc(NC(=O)C3CN(C)C3)nc(-c3ccc(C)o3)n2n1` [Compound 18, 1-methyl-N-[2-methyl-5-(5-methylfuran-2-yl)-[1,2,4]triazolo[1,5-c]pyrimidin-7-yl]azetidine-3-carboxamide], the values for the IC50 in test [1] and in test [2] were 10 to 100 nM and less than 10 nM, respectively.

As for `Cc1nc2cc(NC(=O)C3CC3)nc(-c3ccc(F)c(F)c3)n2n1` [Compound 128, N-[5-(3,4-difluorophenyl)-2-methyl-[1,2,4]triazolo[1,5-c]pyrimidin-7-yl]cyclopropanecarboxamide], the IC50 in test [1] was in the range of 100 to 1000 nM; in test [2] it was 10 to 100 nM.

Regarding `Cc1nc2cc(NC(=O)C3CC3)nc(-c3ccc(C(C)C)o3)n2n1` [Compound 55, N-[2-methyl-5-(5-propan-2-ylfuran-2-yl)-[1,2,4]triazolo[1,5-c]pyrimidin-7-yl]cyclopropanecarboxamide], the values for the IC50 in test [1] and in test [2] were 100 to 1000 nM and less than 10 nM, respectively.

As to `CC(=O)Nc1cc2nc(C(F)F)nn2c(-c2ccco2)n1` [Compound 133, N-[2-(difluoromethyl)-5-(furan-2-yl)-[1,2,4]triazolo[1,5-c]pyrimidin-7-yl]acetamide], the concentration for half-maximal inhibition (IC50) in test [1] and in test [2] was less than 10 nM throughout.

For the molecule `O=C(Nc1cc2nc(C3COC3)nn2c(-c2ccco2)n1)C1CC1` [Compound 92, N-[5-(furan-2-yl)-2-(oxetan-3-yl)-[1,2,4]triazolo[1,5-c]pyrimidin-7-yl]cyclopropanecarboxamide], the IC50 in test [1] is 10 to 100 nM; in test [2] it was less than 10 nM.

Consider `Cc1nc2cc(NC(=O)NCCN3CCCCC3)nc(-c3ccco3)n2n1` [Compound 158, 1-[5-(furan-2-yl)-2-methyl-[1,2,4]triazolo[1,5-c]pyrimidin-7-yl]-3-(2-piperidin-1-ylethyl)urea], for which the results for the concentration for half-maximal inhibition (IC50) in test [1] and in test [2] were 10 to 100 nM and less than 10 nM, respectively.

In the case of `Cc1nc2c(F)c(N)nc(-c3ccc(C)o3)n2n1` [Compound 30, 8-fluoro-2-methyl-5-(5-methylfuran-2-yl)-[1,2,4]triazolo[1,5-c]pyrimidin-7-amine], the half-maximal inhibitory concentration (IC50) in test [1] was 10 to 100 nM; in test [2], less than 10 nM.

With `O=C(Nc1cc2nc(C(F)F)nn2c(-c2ccco2)n1)C1CC1` [Compound 148, N-[2-(difluoromethyl)-5-(furan-2-yl)-[1,2,4]triazolo[1,5-c]pyrimidin-7-yl]cyclopropanecarboxamide], the half-inhibitory concentration (IC50) in test [1] and in test [2] was less than 10 nM throughout.

In the case of `Cc1nc2c3sc(=O)[nH]c3nc(-c3ccc(C)o3)n2n1` [Compound 27, 4-methyl-7-(5-methylfuran-2-yl)-12-thia-3,5,6,8,10-pentazatricyclo[7.3.0.0^2,6]dodeca-1(9),2,4,7-tetraen-l1-one], the IC50 in test [1] and in test [2] was 10 to 100 nM each time.

Regarding `Cc1nc2c(Cl)c(N)nc(-c3ccncc3)n2n1` [Compound 79, 8-chloro-2-methyl-5-pyridin-4-yl-[1,2,4]triazolo[1,5-c]pyrimidin-7-amine], the IC50 was in the range of 100 to 1000 nM in test [1] and 10 to 100 nM in test [2].

Regarding `Cc1nc2cc(NC(=O)C3CNC3)nc(-c3ccc(C)o3)n2n1` [Compound 14, N-[2-methyl-5-(5-methylfuran-2-yl)-[1,2,4]triazolo[1,5-c]pyrimidin-7-yl]azetidine-3-carboxamide], the values for the IC50 in test [1] and in test [2] were 10 to 100 nM and less than 10 nM, respectively.

Take `Cc1ccc(-c2nc(NC(=O)C3CC3)cc3nc(C4CNC4)nn23)o1` [Compound 164, N-[2-(azetidin-3-yl)-5-(5-methylfuran-2-yl)-[1,2,4]triazolo[1,5-c]pyrimidin-7-yl]cyclopropanecarboxamide]: the values for the 50% inhibitory concentration (IC50) in test [1] and in test [2] were more than 1000 nM and 10 to 100 nM, respectively.

Turning to `Cc1nc2c3c(nc(-c4ccc(C)o4)n2n1)NC(=O)C3` [Compound 97, 4-methyl-7-(5-methylfuran-2-yl)-3,5,6,8,10-pentazatricyclo[7.3.0.0^2,6]dodeca-1(9),2,4,7-tetraen-11-one], the results for the half-maximal inhibitory concentration (IC50) in test [1] and in test [2] were 10 to 100 nM and less than 10 nM, respectively.

Consider `Nc1nc(-c2ccccc2)n2nc(C(F)F)nc2c1Cl` [Compound 160, 8-chloro-2-(difluoromethyl)-5-phenyl-[1,2,4]triazolo[1,5-c]pyrimidin-7-amine], for which the IC50 is 10 to 100 nM in test [1] and less than 10 nM in test [2].

For the molecule `CC(=O)Nc1cc2nc(C)nn2c(-c2ccc(F)c(F)c2)n1` [Compound 129, N-[5-(3,4-difluorophenyl)-2-methyl-[1,2,4]triazolo[1,5-c]pyrimidin-7-yl]acetamide], the IC50 was more than 1000 nM in test [1] and 10 to 100 nM in test [2].

With `Cc1ccc(-c2nc(NC(=O)C3CC3)cn3nc(Br)nc23)o1` [Compound 188, N-[2-bromo-8-(5-methylfuran-2-yl)-[1,2,4]triazolo[1,5-a]pyrazin-6-yl]cyclopropanecarboxamide], the IC50 in test [1] and in test [2] was less than 10 nM each time.

Consider `Cc1nc2cc(NC(=O)C3CC3)nc(-c3ccc(F)o3)n2n1` [Compound 85, N-[5-(5-fluorofuran-2-yl)-2-methyl-[1,2,4]triazolo[1,5-c]pyrimidin-7-yl]cyclopropanecarboxamide], for which the IC50 in test [1] and in test [2] was less than 10 nM in each case.

For the molecule `Cc1ccc(-c2nc(NC(=O)C3CC3)cc3nc(C4CC4)nn23)o1` [Compound 62, N-[2-cyclopropyl-5-(5-methylfuran-2-yl)-[1,2,4]triazolo[1,5-c]pyrimidin-7-yl]cyclopropanecarboxamide], the results for the IC50 in test [1] and in test [2] were 10 to 100 nM and less than 10 nM, respectively.

For the molecule `Cc1nc2cc(NC(=O)C3CC3)nc(-c3cnn(C)c3)n2n1` [Compound 70, N-[2-methyl-5-(1-methylpyrazol-4-yl)-[1,2,4]triazolo[1,5-c]pyrimidin-7-yl]cyclopropanecarboxamide], the IC50 in test [1] is more than 1000 nM; in test [2], 100 to 1000 nM.

`CC(=O)Nc1cc2nc(C(C)C)nn2c(-c2cnc(C)o2)n1` [Compound 47, N-[5-(2-methyl-1,3-oxazol-5-yl)-2-propan-2-yl-[1,2,4]triazolo[1,5-c]pyrimidin-7-yl]acetamide]: the results for the IC50 in test [1] and in test [2] were 10 to 100 nM and less than 10 nM, respectively.

With `Cc1nc2c(Cl)c(N)nc(-c3ccc(C)o3)n2n1` [Compound 11, 8-chloro-2-methyl-5-(5-methylfuran-2-yl)-[1,2,4]triazolo[1,5-c]pyrimidin-7-amine], the IC50 in test [1] and in test [2] was less than 10 nM throughout.

Regarding `CCc1nc2cc(N)nc(-c3ccc(C)o3)n2n1` [Compound 7, 2-ethyl-5-(5-methylfuran-2-yl)-[1,2,4]triazolo[1,5-c]pyrimidin-7-amine], the IC50 in test [1] is 100 to 1000 nM; in test [2], less than 10 nM.

`Cc1nc2cc(NC(=O)NCCN3CCOCC3)nc(-c3ccco3)n2n1` [Compound 159, 1-[5-(furan-2-yl)-2-methyl-[1,2,4]triazolo[1,5-c]pyrimidin-7-yl]-3-(2-morpholin-4-ylethyl)urea]: the IC50 in test [1] is 10 to 100 nM; in test [2] it was less than 10 nM.

In the case of `Cc1nc2c(Cl)c(NC(=O)C3CC3)nc(-c3ccc(C)o3)n2n1` [Compound 15, N-[8-chloro-2-methyl-5-(5-methylfuran-2-yl)-[1,2,4]triazolo[1,5-c]pyrimidin-7-yl]cyclopropanecarboxamide], the IC50 was 100 to 1000 nM in test [1] and less than 10 nM in test [2].

As for `CC(=O)Nc1cc2nc(C)nn2c(-c2cnco2)n1` [Compound 51, N-(2-methyl-5-(oxazol-5-yl)-[1,2,4]triazolo[1,5-c]pyrimidin-7-yl)acetamide], the concentration for half-maximal inhibition (IC50) in test [1] was more than 1000 nM; in test [2] it was 100 to 1000 nM.

With `Cc1cccc(-c2nc(N)c(Cl)n3nc(C)nc23)c1` [Compound 183, 5-chloro-2-methyl-8-(3-methylphenyl)-[1,2,4]triazolo[1,5-a]pyrazin-6-amine], the figures for the IC50 in test [1] and in test [2] were 10 to 100 nM and less than 10 nM, respectively.

In the case of `Cc1cccc(-c2nc(N)c(Cl)c3nc(C)nn23)n1` [Compound 76, 8-chloro-2-methyl-5-(6-methylpyridin-2-yl)-[1,2,4]triazolo[1,5-c]pyrimidin-7-amine], the IC50 is more than 1000 nM in test [1] and 10 to 100 nM in test [2].

With `COc1ccc(Cc2nc3cc(NC(=O)C4CC4)nc(-c4ccc(C)o4)n3n2)cc1` [Compound 4], the IC50 in test [1] and in test [2] was less than 10 nM in each case.

For the molecule `CC(=O)Nc1cc2nc(C3CCCC3)nn2c(-c2ccc(C)o2)n1` [Compound 65, N-[2-cyclopentyl-5-(5-methylfuran-2-yl)-[1,2,4]triazolo[1,5-c]pyrimidin-7-yl]acetamide], the figures for the IC50 in test [1] and in test [2] were 10 to 100 nM and less than 10 nM, respectively.

On to `Cc1nc2cc(NC(=O)C3CC3)nc(-c3ccc(C4CC4)o3)n2n1` [Compound 38, N-[5-(5-cyclopropylfuran-2-yl)-2-methyl-[1,2,4]triazolo[1,5-c]pyrimidin-7-yl]cyclopropanecarboxamide], for which the concentration for half-maximal inhibition (IC50) in test [1] is 10 to 100 nM; in test [2], less than 10 nM.
